Data taken from patent publication US7013836B1, “Enhancing maturation of oocytes in bivalves” (Board of Supervisors of Louisiana State University and …, priority 2002, dated 2006).
Where two headings read alike, the source gives them in different places. *1 amine or outer side, *2 acyl side, *3 side chain or, on linkers, in order; H or OH if unused. Where a SMILES comes first, the peptide text is derived from it. Bridges are numbered along the chain shown (N, C = ends). Roman numbers before positions name the chains, in order. [ ]: non-standard residue; d: D form. Actinocin(9to1) = Cc1c2oc3c(C)ccc(C(=O)[*:1])c3nc-2c(C(=O)[*:2])c(N)c1=O; NMeV = CN[C@H](C(=O)O)C(C)C; Sar = CNCC(=O)O

What was measured:
[1] = tested on: pieces of ovary from the scallop; conditions: cited from earlier work
[2] = tested on: ovarian pieces of the scallop; conditions: isolated ovarian pieces in vitro; cited from earlier work
Japanese scallop = conditions: in vivo; cited from earlier work
C. gigas = conditions: cited from earlier work
C. virginica = assay: Spawning response of estradiol-17β-injected oysters to serotonin stimulus after normal spawning season; type: in vivo, Crassostrea virginica
Protocol: A series of initial experiments assayed the response of C. virginica to low doses of estradiol-17β. These trials were undertaken in August and September, at the end of the normal maturation and spawning season of this species on the Gulf coast. Experiments typically ran for two weeks following the injection of a single dose of estradiol-17β into the […] muscle. (Injections were made through a small hole drilled in the shell.) The estradiol dosage for each animal was calculated based on wet body tissue mass of the whole animal, as estimated from its shell length. (These estimates were based on linear regression from measurements of shell lengths and wet body mass from 62 mixed-sex oysters that had been harvested in July). […] (The normal physiological level is 1.5 ng per gram wet weight. So a 5× dosage is 7.5 ng per gram wet weight, […]) Responses to the estradiol treatment were based on visual assessment of gonadal condition, on the response of the excised whole animal to a solution of 0.01 mM 5-hydroxytryptamine during a 45 min treatment period, and on histological examination of samples of the oyster taken through the body mass containing the gonadal region.
The three trials summarized in Table 1 were analyzed using a yes/no non-parametric chi-squared analysis.

oysters = assay: Presence of prominent genital canals 14 days after estradiol-17β injection; type: in vivo, Crassostrea virginica; conditions: after 14 days, May
Protocol: In another experiment, conducted in May in Grand Isle, La., animals were injected either with 0 (control), 37.5 ng/g, or 74 ng/g of estradiol-17β. After 14 days, animals were evaluated using the traditional methodology of assaying the presence of prominent genital canals, indicative of mature animals that are ready to spawn. These animals were not subjected to serotonin treatment, but rather were sacrificed for histological examination to establish a somatic-gonadal ratio index. […] Data analysis was performed using GraphPad InStat software. The data reported in Table 2 are conservative, in the following sense: During the trial period, the water temperature decreased from 23° C. to 18° C., and then increased to 22° C., all within a thirty-six hour period. Such a temperature change is alone often sufficient to trigger spawning in the wild.

[3] = tested on: triploid C. virginica oysters; assay: Triploid oysters: sex, gonadal condition and oocyte yield by stripping after estradiol injection; type: in vivo, Crassostrea virginica; conditions: 150 ng/gm wet weight
Protocol: In trials with 261 triploid C. virginica oysters that began on May 31 in Grand Isle, La., the oysters were notched and were then injected with 150 ng/gm wet weight estradiol 17β. Ten days later, the animals were sacrificed, and their sex and gonadal condition were determined. Of the 261 animals tested, 13 were confirmed female triploids. These 13 triploid females yielded a total of 6 million oocytes by traditional stripping techniques, which is not a high yield in comparison to diploid animals, but was high compared to untreated triploids.
For comparison, on May 6 of the following year, 165 animals selected from the same original cohort of triploid oysters were sacrificed without the estradiol treatment. […] While these observations were made one year apart, both sets of observations involved triploid animals sharing the same diploid parents. The estradiol-treated group was 2 years old at the time of observation, while the untreated group one year later was 3 years old. […] However, in support of the effectiveness of the treatment, it may be noted that the three-year-old, untreated animals were sacrificed at a time when the population of mature and spawning diploid animals in the same location was at its peak, whereas the two-year-old, estradiol-treated animals were examined when the number of mature and spawning diploids was in decline.

[4] = tested on: zebra mussels (Dreissena polymorpha); conditions: cited from earlier work
[5] = tested on: scallop Patinopecten yessoensis; conditions: intragonadal injection; cited from earlier work
[6] = Aug. 18, injection 75 ng per gram wet weight
[7] = Sep. 15, injection 7.5 ng per gram wet weight
[8] = Sep. 22, injection 15 ng per gram wet weight

Compound: CC[C@@H](CO)NC(=O)[C@@H]1C=C2c3cccc4c3c(cn4C)C[C@H]2N(C)C1 [Methysergide]
- release of eggs ([1]; pieces of ovary in vitro): inhibited the release of eggs

Compound: CCCCC[C@H](O)/C=C/[C@H]1[C@H](O)CC(=O)[C@@H]1C/C=C\CCCC(=O)O [PGE2, prostaglandin E2]
- effect on serotonin-induced egg release ([1]; pieces of ovary in vitro): enhanced the effect of serotonin
- release of eggs ([1]; pieces of ovary in vitro): did not induce egg release

Compound: Cc1c2oc3c(C)ccc(C(=O)N[C@@H]4C(=O)N[C@H](C(C)C)C(=O)N5CCC[C@H]5C(=O)N(C)CC(=O)N(C)[C@@H](C(C)C)C(=O)O[C@@H]4C)c3nc-2c(C(=O)N[C@@H]2C(=O)N[C@H](C(C)C)C(=O)N3CCC[C@H]3C(=O)N(C)CC(=O)N(C)[C@@H](C(C)C)C(=O)O[C@@H]2C)c(N)c1=O [actinomycin D] (I: T[dV]P[Sar][NMeV] / II: T[dV]P[Sar][NMeV]; ester I:1-I:C, II:1-II:C; linker I:N-II:N via Actinocin(9to1))
- effect on the accelerating effect of estradiol-17β pre-incubation [2]: inhibited

Compound: CC(=O)Oc1ccccc1C(=O)O [aspirin]
- effect on the accelerating effect of estradiol-17β pre-incubation [2]: inhibited
- effect on serotonin-induced egg release ([1]; PGE2 also present): did not inhibit serotonin-induced egg release

Compound: C[C@]12C[C@H]3S[C@H]3C[C@@H]1CC[C@@H]1[C@@H]2CC[C@]2(C)[C@@H](O)CC[C@@H]12 [epitostanol]
- increase of PGE2 and PGF2α in the ovary (Japanese scallop): inhibit the increase of PGE2 and PGF2α

Compound: C[C@]12CC[C@@H]3c4ccc(OC(=O)c5ccccc5)cc4CC[C@H]3[C@@H]1CC[C@@H]2O [estradiol-3-benzoate]
- response time following injection (C. gigas): about 50 days
- gonadal-somatic index ratio (C. gigas; high dose injected into the gonad): promoted an increase in the gonadal-somatic index ratio

Compound: C[C@]12CC[C@@H]3c4ccc(O)cc4CC[C@H]3[C@@H]1CC[C@@H]2O [estradiol-17β]
- Animals not responding to 5-hydroxytryptophan stimulus - % (C. virginica; [6]): 42%
- Animals not responding to 5-hydroxytryptophan stimulus - no. (C. virginica; [6]): 6
- Animals responding to 5-hydroxytryptophan stimulus - % (C. virginica; [6]): 58%
- Animals responding to 5-hydroxytryptophan stimulus - no. (C. virginica; [6]): 8
- Animals not responding to 5-hydroxytryptophan stimulus - % (C. virginica; [7]): 60%
- Animals not responding to 5-hydroxytryptophan stimulus - no. (C. virginica; [7]): 12
- Animals responding to 5-hydroxytryptophan stimulus - % (C. virginica; [7]): 40%
- Animals responding to 5-hydroxytryptophan stimulus - no. (C. virginica; [7]): 8
- Animals not responding to 5-hydroxytryptophan stimulus - % (C. virginica; [8]): 65%
- Animals not responding to 5-hydroxytryptophan stimulus - no. (C. virginica; [8]): 21
- Animals responding to 5-hydroxytryptophan stimulus - % (C. virginica; [8]): 35%
- Animals responding to 5-hydroxytryptophan stimulus - no. (C. virginica; [8]): 11
- number with prominent genital canals (oysters; dose 1 group, 37.5 ng/g): 11
- number without prominent genital canals (oysters; dose 1 group, 37.5 ng/g): 38
- percent with prominent genital canals (oysters; dose 1 group, 37.5 ng/g): 22%
- percent without prominent genital canals (oysters; dose 1 group, 37.5 ng/g): 78%
- number with prominent genital canals (oysters; dose 2 group, 74 ng/g): 18
- number without prominent genital canals (oysters; dose 2 group, 74 ng/g): 35
- percent with prominent genital canals (oysters; dose 2 group, 74 ng/g): 34%
- percent without prominent genital canals (oysters; dose 2 group, 74 ng/g): 66%
- total oocytes yielded by traditional stripping ([3]; 13 triploid females, ten days after injection): 6 million oocytes
- confirmed female triploids among animals tested ([3]; of 261 triploid oysters, untreated cohort of 165 had none): 13

Compound: CNCCC(Oc1ccc(C(F)(F)F)cc1)c1ccccc1 (stereo not drawn) [fluoxetine]
- induction of spawning [4]: can induce spawning in both sexes

Compound: COCCCC/C(=N\OCCN)c1ccc(C(F)(F)F)cc1 [fluvoxamine]
- induction of spawning [4]: can induce spawning in both sexes

Compound: COc1ccc2c(c1)c(CC(=O)O)c(C)n2C(=O)c1ccc(Cl)cc1 [indomethacin]
- effect on serotonin-induced egg release ([1]; PGE2 also present): did not inhibit serotonin-induced egg release

Compound: Fc1ccc([C@@H]2CCNC[C@H]2COc2ccc3c(c2)OCO3)cc1 [paroxetine]
- induction of spawning [4]: can induce spawning in both sexes

Compound: NCCc1c[nH]c2ccc(O)cc12 [serotonin, 5-hydroxytryptamine]
- release of eggs ([1]; pieces of ovary in vitro): the number of released eggs increased significantly
- spawning [5]: stimulated spawning in both sexes
- induction of spawning [4]: induce both oocyte meiotic maturation and spawning

Compound: prostaglandin F2α [PGF2α]
- effect on serotonin-induced egg release ([1]; pieces of ovary in vitro): significantly inhibited the effect of serotonin
